Drawing on patent publication US20260200928A1, “THERAPEUTIC COMPOUNDS” (Sanofi, priority 2022, published 2026), this text covers IC50 for 26 compounds.

This assay deals with T1, human IL-17A (Homo sapiens, UniProt Q16552).
T1 construct: purchased R&D Systems 7955-IL/CF
T1 sequence (Q16552 24-155): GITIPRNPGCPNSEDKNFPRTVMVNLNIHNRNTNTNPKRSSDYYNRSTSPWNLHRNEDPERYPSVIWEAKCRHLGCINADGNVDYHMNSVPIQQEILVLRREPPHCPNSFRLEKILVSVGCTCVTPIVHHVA
Put plainly: IL-17A AlphaLISA competition assay (block of IL-17A binding to its receptor IL-17RA). To be noted: mean IC50 (n≥2), block of IL-17A binding to IL-17RA. In a few lines: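 Human recombinant IL-17A (7.5 nM stock) pre-incubated 30 min at RT with compound, then IL-17RA/Fc (5 nM stock) added for 90 min; AlphaLISA read with anti-Fc acceptor beads, biotinylated anti-IL-17A antibody (5 nM) and streptavidin donor beads (3 h, dark). IC50 from 4-parameter logistic fit, normalised to DMSO and 4 μM reference inhibitor; n≥2.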
In general terms: Bead proximity is the source of the signal in Alpha formats.
`CCn1nccc1C(=O)NC(C(=O)Nc1cc([C@@H](COC)N2C[C@@H](C(F)(F)F)NC2=O)ccn1)C1CCC(C)(F)CC1` (single isomer, unassigned) [Example 299]: the IC50 (commonly the concentration at which inhibition is half-maximal) came out at 72 nM. Under `Cn1nccc1C(=O)NC(COC(C)(C)C)C(=O)Nc1cc(CN2C[C@@H](C(F)(F)F)NC2=O)ccn1` (stereo partly drawn) [Example 83, N-(3-(tert-butoxy)-1-oxo-1-((4-(((S)-2-oxo-4-(trifluoromethyl)imidazolidin-1-yl)methyl)pyridin-2-yl)amino)propan-2-yl)-1-methyl-1H-pyrazole-5-carboxamide] stands 7110 nM. Under `CC(C)(C)OC(=O)NC(C(=O)Nc1cc(CN2C[C@@H](C(F)(F)F)NC2=O)ccn1)C1CCC(F)(F)CC1` (stereo in doubt) [Example 6, Tert-butyl N-[(1S)-1-(4,4-difluorocyclohexyl)-2-oxo-2-[[4-[[(4S)-2-oxo-4-(trifluoro-methyl)imidazolidin-1-yl]methyl]-2-pyridyl]amino]ethyl]carbamate] stands 566 nM.

Regarding “4-ethyl-N-(1-(4-fluorocyclohexyl)-2-((4-((S)-2-methoxy-1-((S)-2-oxo-4-(trifluoromethyl)imidazolidin-1-yl)ethyl)pyridin-2-yl)amino)-2-oxoethyl)-1,2,5-oxadiazole-3-carboxamide [Example 285]”, the IC50 came to 17 nM.

`CC(C)n1nccc1C(=O)N[C@@H](C(=O)Nc1cc(CN2C[C@H](C(F)(F)F)NC2=O)ccn1)[C@H]1CC[C@H](C)CC1` [Example 4, 1-isopropyl-N—((S)-1-((1r,4S)-4-methylcyclohexyl)-2-oxo-2-((4-(((S)-2-oxo-4-(trifluoromethyl)imidazolidin-1-yl)methyl)pyridin-2-yl)amino)ethyl)-1H-pyrazole-5-carboxamide] returned an IC50 of 35 nM.

`COCC(c1ccnc(NC(=O)[C@@H](NC(=O)c2nnnn2C)[C@H]2CC[C@H](C)CC2)c1)N1C[C@@H](C(F)(F)F)NC1=O` (single isomer, unassigned) [Example 93] yielded a half-maximal inhibitory concentration (IC50) of 341 nM.

`COCC(c1ccnc(NC(=O)[C@@H](NC(=O)OC(C)(C)C)[C@H]2CC[C@H](C)CC2)c1)N1C[C@@H](C(F)(F)F)NC1=O` (single isomer, unassigned) [Example 66, tert-butyl ((S)-2-((4-((R or S)-2-methoxy-1-((S)-2-oxo-4-(trifluoromethyl)imidazolidin-1-yl)ethyl)pyridin-2-yl)amino)-1-((1r,4S)-4-methylcyclohexyl)-2-oxoethyl)carbamate] displayed an IC50 of 74 nM.

`Cn1nccc1C(=O)N[C@H](C(=O)Nc1cc(CN2C[C@@H](C(F)(F)F)NC2=O)ccn1)C(C1CC1)C1CC1` [Example 15, N-((S)-1,1-dicyclopropyl-3-oxo-3-((4-(((S)-2-oxo-4-(trifluoromethyl)imidazolidin-1-yl)methyl)pyridin-2-yl)amino)propan-2-yl)-1-methyl-1H-pyrazole-5-carboxamide] registered an IC50 of 201 nM.

For the compound `CC(C)n1nccc1C(=O)N[C@H](C(=O)Nc1cc(C[C@H]2C[C@@H](C(F)(F)F)NC2=O)ccn1)C1CCC(F)(F)CC1` [Example 225, N-((S)-1-(4,4-difluorocyclohexyl)-2-oxo-2-((4-(((3S,5S)-2-oxo-5-(trifluoromethyl)pyrrolidin-3-yl)methyl)pyridin-2-yl)amino)ethyl)-1-isopropyl-1H-pyrazole-5-carboxamide], the IC50 worked out at 105 nM. Consider `COC[C@H](c1ccnc(NC(=O)[C@@H](NC(=O)c2nonc2OCC(F)(F)F)C2CCC(F)(F)CC2)c1)N1C[C@@H](C(F)(F)F)NC1=O` [Example 193, N-((S)-1-(4,4-difluorocyclohexyl)-2-((4-((S)-2-methoxy-1-((S)-2-oxo-4-(trifluoromethyl)imidazolidin-1-yl)ethyl)pyridin-2-yl)amino)-2-oxoethyl)-4-(2,2,2-trifluoroethoxy)-1,2,5-oxadiazole-3-carboxamide], for which the half-inhibitory concentration (IC50) is 105 nM. As to `COCC(c1ccnc(NC(=O)C(NC(=O)C(F)(F)c2ccc(OC)nc2)C2CCC(C)CC2)c1)N1CC(C(F)(F)F)NC1=O` (single isomer, unassigned) [Example 252], the IC50 is 49 nM.

Compound `COC[C@H](c1ccnc(NC(=O)[C@@H](NC(=O)C(C)c2cccc(C#N)c2)C2CCC(F)(F)CC2)c1)N1C[C@@H](C(F)(F)F)NC1=O` (stereo partly drawn) [Example 205, 2-(3-cyanophenyl)-N-((S)-1-(4,4-difluorocyclohexyl)-2-((4-((S)-2-methoxy-1-((S)-2-oxo-4-(trifluoromethyl)imidazolidin-1-yl)ethyl)pyridin-2-yl)amino)-2-oxoethyl) propanamide] returned an IC50 of 347 nM. Under `COCC(NC(=O)CCC(F)(F)F)c1ccnc(NC(=O)[C@@H](NC(=O)c2nonc2C2CC2)C2CCC(F)(F)CC2)c1` (single isomer, unassigned) [Example 133] stands 73 nM; under `CCn1nccc1C(=O)N[C@H](C(=O)Nc1cc([C@@H](COC)N2C[C@@H](C(F)(F)F)NC2=O)ccn1)C1CCC(Cl)CC1` (stereo partly drawn) [Example 310, N-((1S)-1-(4-chlorocyclohexyl)-2-((4-((S)-2-methoxy-1-((S)-2-oxo-4-(trifluoromethyl)imidazolidin-1-yl)ethyl)pyridin-2-yl)amino)-2-oxoethyl)-1-ethyl-1H-pyrazole-5-carboxamide], 71 nM; under `CCc1nocc1C(=O)N[C@H](C(=O)Nc1cc(C(C)(C)N2C[C@@H](C(F)(F)F)NC2=O)ccn1)C1CCC(F)(F)CC1` [Example 173, N-((S)-1-(4,4-difluorocyclohexyl)-2-oxo-2-((4-(2-((S)-2-oxo-4-(trifluoromethyl)imidazolidin-1-yl)propan-2-yl)pyridin-2-yl)amino)ethyl)-3-ethylisoxazole-4-carboxamide], 187 nM.

The compound `CC(C)n1nccc1C(=O)N[C@H](C(=O)Nc1cc(CN2C[C@@H](C(F)(F)F)NC2=O)ccn1)C(C1CC1)C1CC1` [Example 17, N-((S)-1,1-dicyclopropyl-3-oxo-3-((4-(((S)-2-oxo-4-(trifluoromethyl)imidazolidin-1-yl)methyl)pyridin-2-yl)amino)propan-2-yl)-1-isopropyl-1H-pyrazole-5-carboxamide] displayed an IC50 of 92 nM.

The compound `COC[C@H](c1ccnc(NC(=O)C(NC(=O)c2nonc2C)C2CCC(C)(F)CC2)c1)N1C[C@@H](C(F)(F)F)NC1=O` (single isomer, unassigned) [Example 298] registered an IC50 of 85 nM. Compound `C[C@@H](OC(C)(C)C)[C@H](NC(=O)c1ccnn1C)C(=O)Nc1cc(CN2C[C@@H](C(F)(F)F)NC2=O)ccn1` [Example 103, N-((2S,3R)-3-(tert-butoxy)-1-oxo-1-((4-(((S)-2-oxo-4-(trifluoromethyl)-imidazolidin-1-yl)methyl)pyridin-2-yl)amino)butan-2-yl)-1-methyl-1H-pyrazole-5-carboxamide] came in with a half-maximal inhibitory concentration (IC50) of 1740 nM. As to `CC(C)n1nccc1C(=O)N[C@H](C(=O)Nc1cc(C(NC(=O)CCC(F)(F)F)C2CC2)ccn1)C(C1CC1)C1CC1` (single isomer, unassigned) [Example 43], the IC50 worked out at 171 nM.

As to `[2H]C(c1ccnc(NC(=O)[C@@H](NC(=O)c2nonc2C2CC2)[C@H]2CC[C@H](C)CC2)c1)N1C[C@@H](C(F)(F)F)NC1=O` (stereo partly drawn) [Example 231, 4-Cyclopropyl-N-((1S)-1-((1r,4S)-4-methylcyclohexyl)-2-oxo-2-((4-(((S)-2-oxo-4-(trifluoromethyl)imidazolidin-1-yl)methyl-d)pyridin-2-yl)amino)ethyl)-1,2,5-oxadiazole-3-carboxamide], the IC50 is 38 nM.

Consider `CCc1nocc1C(=O)N[C@H](C(=O)Nc1cc(C(COC)N2C[C@@H](C(F)(F)F)NC2=O)ccn1)[C@H]1CC[C@H](C)CC1` (single isomer, unassigned) [Example 125], for which the IC50 came out at 13 nM. Turning to `O=C(CCC(F)(F)F)NC(c1ccnc(NC(=O)[C@@H](NC(=O)c2nonc2C2CC2)C(C2CC2)C2CC2)c1)C1CC1` (single isomer, unassigned) [Example 39], the 50% inhibitory concentration (IC50) is 138 nM. Compound `CCn1nccc1C(=O)N[C@H](C(=O)Nc1cc(C[C@@H]2C[C@@H](C(F)(F)F)NC2=O)ccn1)[C@H]1CC[C@H](C)CC1` [Example 153, 1-ethyl-N—((S)-1-((1r,4S)-4-methylcyclohexyl)-2-oxo-2-((4-(((3R,5S)-2-oxo-5-(trifluoromethyl)pyrrolidin-3-yl)methyl)pyridin-2-yl)amino)ethyl)-1H-pyrazole-5-carboxamide] showed a 50% inhibitory concentration (IC50) of 171 nM. For the compound `C[C@H]1CC[C@H]([C@H](NC(=O)c2nonc2C2CC2)C(=O)Nc2cc(CN3C[C@@H](C(F)(F)F)NC3=O)c(F)cn2)CC1` [Example 61, 4-cyclopropyl-N-((S)-2-((5-fluoro-4-(((S)-2-oxo-4-(trifluoromethyl)imidazolidin-1-yl)methyl)pyridin-2-yl)amino)-1-((1r,4S)-4-methylcyclohexyl)-2-oxo-ethyl)-1,2,5-oxadiazole-3-carboxamide], the IC50 turned out to be 612 nM.

`O=C(N[C@H](C(=O)Nc1cc(C[C@H]2C[C@@H](C(F)(F)F)NC2=O)ccn1)C1CCC(F)(F)CC1)c1nonc1C1CC1` [Example 222, 4-cyclopropyl-N-((S)-1-(4,4-difluorocyclohexyl)-2-oxo-2-((4-(((3S,5S)-2-oxo-5-(trifluoromethyl)pyrrolidin-3-yl)methyl)pyridin-2-yl)amino)ethyl)-1,2,5-oxadiazole-3-carboxamide] came in with an IC50 of 70 nM. `CCc1nonc1C(=O)N[C@H](C(=O)Nc1cc(C(COC)N2C[C@@H](C(F)(F)F)NC2=O)ccn1)[C@H]1CC[C@H](C)CC1` (single isomer, unassigned) [Example 88] returned an IC50 of 4 nM.
